According to patent publication US10267796B2, “Screening methods of modulating adrenergic receptor gene expressions implicated in melanogenesis” (The Procter & Gamble Company, priority 2010, dated 2019):

Tests used:
human skin explants = assay: Pigmentation gene expression in human skin explants; assay type: cell-based; conditions: compared with Stem Cell Factor & Endothelin (Endo-SCF), FIG. 5
Source text: FIG. 5 is a graphical illustration depicting the effect of dobutamine on human skin explants.
As stated above, ADRβ1 and ADRβ2 stimulation result in elevated cAMP levels which drive tyrosinase production in known melanogenesis pathways.

B16-F1 cells = assay: B16 cell melanin synthesis assay; assay type: cell-based, murine; conditions: FIG. 4; for effect on melanin synthesis (% MS): increasing concentration (w/v %)
Source text: Determining test agents suitable as ADRβ1 antagonists, ADRβ2 antagonists, or combinations thereof may utilize a melanin synthesis assay selected from the group consisting of a B16 cell assay or a skin model. The B16-F1 cells, which are murine melanoma cells obtained from American Tissue Culture Collection (ATCC), contain the synthetic machinery for melanin production and respond to some benchmark whitening/tanning agents. The following experiment depicts one exemplary method of determining the effect of test agents on melanin synthesis. In the experiment, 0.5 mL of B16-F1 cells are added to 29.5 ml of B16-F1 culture media to 2 separate T-150 flasks, and grown to near (˜80% ) confluency. The culture media B16-F1 comprises the following components as shown in Table 1 below: The cells from the T-150 flasks were trypsinized and counted with a hemacytometer. Then, cell vials (1×10^6 cell aliquots) were frozen in a mixture comprising 95% B16-F1 culture medium and 5% DMSO (Dimethyl sulfoxide) and placed in liquid Nitrogen. All cell culture reagents (except trypsin) were heated in a 37° C. water bath. On day zero, 29 mL of B16-F1 culture media was placed into a T-150 flask at 37° C. Then, a vial of the frozen cells was obtained, thawed in a 37° C. water bath, and placed in the T-150 flask. The flask was agitated to mix the cells with the media, and then the flask was incubated for 3 days at 37° C. in a humidified environment comprising 5% CO2. On day 3, the cells from the flask were trypsinized and the cell density was determined. At which point, the cells were split into a 96-well plate with 2,500 cells per well. At day 5, the cells were treated with the test agents. On day 7, the cells were assayed for melanin production and toxicity. […] As stated above, ADRβ1 and ADRβ2 stimulation result in elevated cAMP levels which drive tyrosinase production in known melanogenesis pathways.

ADRβ1 receptors = ADRβ1 receptors (Homo sapiens, UniProt P08588); assay: ADRβ1 receptor antagonist screening (half maximal inhibitory concentration); assay type: binding
ADRβ1 receptors, sequence (P08588 whole entry): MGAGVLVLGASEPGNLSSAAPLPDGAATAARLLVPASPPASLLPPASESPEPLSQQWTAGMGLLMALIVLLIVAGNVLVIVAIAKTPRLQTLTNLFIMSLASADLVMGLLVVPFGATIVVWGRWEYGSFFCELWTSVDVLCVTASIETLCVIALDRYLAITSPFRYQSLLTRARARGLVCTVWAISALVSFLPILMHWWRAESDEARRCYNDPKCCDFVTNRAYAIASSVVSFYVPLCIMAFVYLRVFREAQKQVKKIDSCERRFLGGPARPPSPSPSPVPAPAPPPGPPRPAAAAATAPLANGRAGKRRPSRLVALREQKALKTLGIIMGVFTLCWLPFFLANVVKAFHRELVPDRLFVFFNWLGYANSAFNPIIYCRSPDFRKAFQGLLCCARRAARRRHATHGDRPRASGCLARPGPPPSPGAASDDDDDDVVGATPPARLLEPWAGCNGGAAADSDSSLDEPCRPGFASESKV
Source text: Based on these inventive discoveries, a screening method for determining at least one test agent effective for modifying the appearance of pigmented skin is provided. The method comprises contacting a cell, a cell culture, or bulk cells with the test agent, wherein the cell, the cell culture, or the bulk cells comprise ADRβ1 receptors, and determining based on the binding interaction of the test agent with the ADRβ1 receptors whether the test agent is an effective ADRβ1 receptor antagonist suitable for modifying the appearance of pigmented skin, wherein a test agent is considered to be an effective ADRβ1 receptor antagonist when it defines a half maximal inhibitory concentration of less than about 1000 ppm.
The method further comprises determining whether test agents are effective for improving the appearance of pigmented skin if the test agent is an antagonist of the ADRβ1 receptors. In one embodiment, the test agent may be identified as an ADRβ1 receptor antagonist if the test agent defines a half maximal inhibitory concentration (IC50) of less than about 1000 ppm. In further embodiments, the ADRβ1 receptor antagonist defines a half maximal inhibitory concentration of less than about 100 ppm, or less than about 50 ppm. By utilizing this metric of maximal inhibitory concentration, it is possible to correlate the antagonistic activity of the ADRβ1 receptor antagonists with an ability of the ADRβ1 receptor antagonists to improve the appearance of hyper-pigmented spots in human skin. In further embodiments, when the ADRβ1 receptor antagonists bind to the ADRβ1 receptors, a luminescent reference signal may be generated, which may be measured by a luminometer, a fluorescence plate reader, or a fluorometer.
As shown below in Table 2, the present inventors have further recognized that modifying a test agent from a peptide to a palmitoylated peptide greatly improves its efficacy as an ADRβ1 inhibitor.

Row | Molecule | ADRβ1 IC 50 (ppm) (ADRβ1 receptors) | further results
1 | CC(CCc1ccc(O)cc1)NCCc1ccc(O)c(O)c1 (stereo not shown) [dobutamine] |  | pigmentation gene expression (human skin explants): induces pigmentation gene expression in human skin explants more than the paracrine factors; effect on melanin synthesis (% MS) (B16-F1 cells): increases the melanin synthesis
2 | CC(C)NCC(O)c1ccc(O)c(O)c1 (stereo not shown) [isoprenaline] |  | melanin synthesis (% MS) (B16-F1 cells; as the concentration of isoprenaline increased): ~300%; effect on melanin synthesis (% MS) (B16-F1 cells): increases the melanin synthesis
3 | AcetylGHK | 45 | 
4 | AcetylGQPR [acetyl-modified GQPR peptide] | 45 | 
5 | palGHK | 3.3 | 
6 | palGQPR [palmitoylated GQPR peptide] | 0.23 | 

Further lines, with some results ahead:

Row | ADRβ1 IC 50 (ppm) (ADRβ1 receptors) | Molecule | further results
7 | 1100 | GHK | 
8 | 1200 | GQPR | 
